Data from patent US8436178B2, “Imidazoquinolines with immuno-modulating properties” (AstraZeneca AB, priority 2007, dated 2013).
Counter-ions that a name gives are not always drawn.

Target: T1, human TLR7 (Homo sapiens, UniProt Q9NYK1)
T1 construct: expressed in transfected cells; host or cells: HEK293 cell line stably expressing the pNiFty2-SEAP reporter plasmid; TLR7 in pUNO vector, blasticidin selection
T1 sequence (Q9NYK1 27-1049): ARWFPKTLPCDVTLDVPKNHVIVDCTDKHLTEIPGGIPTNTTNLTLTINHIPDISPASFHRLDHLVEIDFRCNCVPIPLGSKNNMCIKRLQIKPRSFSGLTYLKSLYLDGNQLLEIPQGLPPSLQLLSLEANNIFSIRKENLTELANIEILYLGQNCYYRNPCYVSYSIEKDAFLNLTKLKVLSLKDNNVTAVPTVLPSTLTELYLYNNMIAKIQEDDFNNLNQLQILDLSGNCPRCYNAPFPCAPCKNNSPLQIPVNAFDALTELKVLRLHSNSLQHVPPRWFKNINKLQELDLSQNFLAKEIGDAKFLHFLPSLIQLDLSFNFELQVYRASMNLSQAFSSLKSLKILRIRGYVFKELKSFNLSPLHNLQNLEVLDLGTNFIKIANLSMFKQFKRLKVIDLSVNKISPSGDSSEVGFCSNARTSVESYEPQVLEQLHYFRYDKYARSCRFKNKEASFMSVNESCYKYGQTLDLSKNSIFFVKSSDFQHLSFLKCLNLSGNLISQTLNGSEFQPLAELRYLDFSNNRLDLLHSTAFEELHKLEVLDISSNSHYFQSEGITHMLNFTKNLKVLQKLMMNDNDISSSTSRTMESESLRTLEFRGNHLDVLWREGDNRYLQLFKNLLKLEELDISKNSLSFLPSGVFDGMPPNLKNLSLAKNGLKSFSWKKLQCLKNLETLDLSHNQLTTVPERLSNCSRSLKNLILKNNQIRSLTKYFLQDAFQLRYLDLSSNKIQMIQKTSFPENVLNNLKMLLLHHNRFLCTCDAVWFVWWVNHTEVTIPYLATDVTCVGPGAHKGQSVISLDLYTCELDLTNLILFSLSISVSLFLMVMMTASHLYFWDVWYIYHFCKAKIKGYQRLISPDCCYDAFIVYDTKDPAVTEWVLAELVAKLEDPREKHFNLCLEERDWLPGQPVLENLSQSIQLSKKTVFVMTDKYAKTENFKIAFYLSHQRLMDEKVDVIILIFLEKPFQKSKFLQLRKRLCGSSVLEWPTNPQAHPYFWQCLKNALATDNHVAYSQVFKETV
Assay: Human TLR7 assay (SEAP reporter in HEK293 cells)
Format: cell-based
Details: SEAP induction in HEK293 cells expressing human TLR7, overnight incubation at 37° C., 0.1% DMSO
Excerpt: The most common variant sequence of human TLR7 (represented by the EMBL sequence AF240467) was cloned into the mammalian cell expression vector pUNO and transfected into a HEK293 cell line already stably expressing the pNiFty2-SEAP reporter plasmid; integration of the reporter gene was maintained by selection with the antibiotic zeocin. Transfectants with stable TLR7 expression were selected using the antibiotic blasticidin. In this reporter cell-line, expression of secreted alkaline phosphatase (SEAP) is controlled by an NFkB/ELAM-1 composite promoter comprising five NFkB sites combined with the proximal ELAM-1 promoter. TLR signaling leads to the translocation of NFkB and activation of the promoter results in expression of the SEAP gene. TLR7-specific activation was assessed by determining the level of SEAP produced following overnight incubation of the cells at 37° C. with the standard compound in the presence of 0.1% (v/v) dimethylsulfoxide (DMSO). Concentration dependent induction of SEAP production by compounds was expressed as the concentration of compound which produced half of the maximal level of SEAP induction for that compound (pEC50).

| Compound | EC50 [nM] |
| --- | --- |
| CCCCc1nc2c(N)nc3ccccc3c2n1CCCN(Cc1ccc(CC(=O)OC)cc1)C(=O)CN1CCN(c2ncccn2)CC1 [Example 21, Methyl 2-(4-((N-(3-(4-amino-2-butyl-1H-imidazo[4,5-c]quinolin-1-yl)propyl)-2-(4-(pyrimidin-2-yl)piperazin-1-yl)acetamido)methyl)phenyl)acetate] | 631 |
| CCCCc1nc2c(N)nc3ccccc3c2n1CCCN(Cc1ccc(CC(=O)OC)cc1)C(=O)CN1CCN(C(=O)OCC)CC1 [Example 22, Ethyl 4-(2-((3-(4-amino-2-butyl-1H-imidazo[4,5-c]quinolin-1-yl)propyl)(4-(2-methoxy-2-oxoethyl)benzyl)amino)-2-oxoethyl)piperazine-1-carboxylate] | 631 |
| CCCCc1nc2c(N)nc3ccccc3c2n1CCCN(Cc1ccc(CC(=O)OC)cc1)C(=O)CN1CCN(S(=O)(=O)CC)CC1 [Example 23, Methyl 2-(4-((N-(3-(4-amino-2-butyl-1H-imidazo[4,5-c]quinolin-1-yl)propyl)-2-(4-(ethylsulfonyl)piperazin-1-yl)acetamido)methyl)phenyl)acetate] | 251 |
| CCCCc1nc2c(N)nc3ccccc3c2n1CCCN(Cc1ccc(CC(=O)OC)cc1)C(=O)CN1CCC(NC(=O)OC(C)(C)C)CC1 [Example 25, Methyl 2-(4-((N-(3-(4-amino-2-butyl-1H-imidazo[4,5-c]quinolin-1-yl)propyl)-2-(4-(tert-butoxycarbonylamino)piperidin-1-yl)acetamido)methyl)phenyl)acetate] | 200 |
| CCCCc1nc2c(N)nc3ccccc3c2n1CCCN(Cc1ccc(CC(=O)OC)cc1)C(=O)CN1CCC(N(C)C(=O)OC(C)(C)C)CC1 [Example 26, Methyl 2-(4-((N-(3-(4-amino-2-butyl-1H-imidazo[4,5-c]quinolin-1-yl)propyl)-2-(4-(tert-butoxycarbonyl(methyl)amino)piperidin-1-yl)acetamido)methyl)phenyl)acetate] | 316 |
| CCCCc1nc2c(N)nc3ccccc3c2n1CCCN(Cc1ccc(CC(=O)OC)cc1)C(=O)CN1CCC(CC(=O)OCC)CC1 [Example 27, Ethyl 2-(1-(2-((3-(4-amino-2-butyl-1H-imidazo[4,5-c]quinolin-1-yl)propyl)(4-(2-methoxy-2-oxoethyl)benzyl)amino)-2-oxoethyl)piperidin-4-yl)acetate] | 39.8 |
| CCCCc1nc2c(N)nc3ccccc3c2n1CCCN(Cc1ccc(CC(=O)OC)cc1)C(=O)CN1CCC(C(=O)OC)CC1 [Example 28, Methyl 1-(2-((3-(4-amino-2-butyl-1H-imidazo[4,5-c]quinolin-1-yl)propyl)(4-(2-methoxy-2-oxoethyl)benzyl)amino)-2-oxoethyl)piperidine-4-carboxylate] | 200 |
| COCCc1nc2c(N)nc3ccccc3c2n1CCCN(Cc1ccc(CC(=O)OC)cc1)C(=O)CN1CCCCC1 [Example 29, Methyl 2-(4-((N-(3-(4-amino-2-(2-methoxyethyl)-1H-imidazo[4,5-c]quinolin-1-yl)propyl)-2-(piperidin-1-yl)acetamido)methyl)phenyl)acetate] | 100 |
| COCCc1nc2c(N)nc3ccccc3c2n1CCCN(Cc1cccc(CC(=O)OC)c1)C(=O)CN1CCCCC1 [Example 31, Methyl 2-(3-((N-(3-(4-amino-2-(2-methoxyethyl)-1H-imidazo[4,5-c]quinolin-1-yl)propyl)-2-(piperidin-1-yl)acetamido)methyl)phenyl)acetate saccharin salt] | 158 |
| COCCc1nc2c(N)nc3ccccc3c2n1CCCN(Cc1ccc(CC(=O)OC)cc1)C(=O)CN(C)CCOC [Example 32, Methyl 2-(4-((N-(3-(4-amino-2-(2-methoxyethyl)-1H-imidazo[4,5-c]quinolin-1-yl)propyl)-2-((2-methoxyethyl)(methyl)amino)acetamido)methyl)phenyl)acetate] | 158 |
| COCCc1nc2c(N)nc3ccccc3c2n1CCCN(Cc1ccc(CC(=O)OC)cc1)C(=O)CCN1CCCCC1 [Example 33, Methyl 2-(4-((N-(3-(4-amino-2-(2-methoxyethyl)-1H-imidazo[4,5-c]quinolin-1-yl)propyl)-3-(piperidin-1-yl)propanamido)methyl)phenyl)acetate] | 158 |
| COCCc1nc2c(N)nc3ccccc3c2n1CCCN(CCCN1CCOCC1)Cc1ccc(CC(=O)OC)cc1 [Example 34, Methyl 2-(4-(((3-(4-amino-2-(2-methoxyethyl)-1H-imidazo[4,5-c]quinolin-1-yl)propyl)(3-morpholinopropyl)amino)methyl)phenyl)acetate] | 316 |
| COCCc1nc2c(N)nc3ccccc3c2n1CCCN(Cc1ccc(CC(=O)OC)cc1)C(=O)CN1CCCC1 [Example 37, Methyl 2-(4-((N-(3-(4-amino-2-(2-methoxyethyl)-1H-imidazo[4,5-c]quinolin-1-yl)propyl)-2-(pyrrolidin-1-yl)acetamido)methyl)phenyl)acetate disaccharin salt] | 398 |

Now from value to compound:

| EC50 [nM] | Compound |
| --- | --- |
| 398 | CCCCc1nc2c(N)nc3ccccc3c2n1CCCN(Cc1ccc(CC(=O)OC)cc1)C(=O)CS(C)(=O)=O [Example 15, Methyl 2-(4-((N-(3-(4-amino-2-butyl-1H-imidazo[4,5-c]quinolin-1-yl)propyl)-2-(methylsulfonyl)acetamido)methyl)phenyl)acetate] |
| 126 | CCCCc1nc2c(N)nc3ccccc3c2n1CCCN(Cc1ccc(CC(=O)OC)cc1)C(C)=O [Example 16, Methyl 2-(4-((N-(3-(4-amino-2-butyl-1H-imidazo[4,5-c]quinolin-1-yl)propyl)acetamido)methyl)phenyl)acetate] |
| 158 | CCCCc1nc2c(N)nc3ccccc3c2n1CCCN(Cc1ccc(CC(=O)OC)cc1)C(=O)CN1CCOCC1 [Example 17, Methyl 2-(4-((N-(3-(4-amino-2-butyl-1H-imidazo[4,5-c]quinolin-1-yl)propyl)-2-morpholinoacetamido)methyl)phenyl)acetate] |
| 63.1 | CCCCc1nc2c(N)nc3ccccc3c2n1CCCN(Cc1ccc(CC(=O)OC)cc1)C(=O)CN(C)CCOC [Example 18] |
| 251 | CCCCc1nc2c(N)nc3ccccc3c2n1CCCN(Cc1ccc(CC(=O)OC)cc1)C(=O)CN1CCN(C(C)=O)CC1 [Example 19, Methyl 2-(4-((2-(4-acetylpiperazin-1-yl)-N-(3-(4-amino-2-butyl-1H-imidazo[4,5-c]quinolin-1-yl)propyl)acetamido)methyl)phenyl)acetate] |
| 251 | CCCCc1nc2c(N)nc3ccccc3c2n1CCCN(Cc1ccc(CC(=O)OC)cc1)C(=O)CN1CC[C@@H](O)C1 [Example 20, (R)-Methyl 2-(4-((N-(3-(4-amino-2-butyl-1H-imidazo[4,5-c]quinolin-1-yl)propyl)-2-(3-hydroxypyrrolidin-1-yl)acetamido)methyl)phenyl)acetate] |
| 79.4 | CCCCc1nc2c(N)nc3ccccc3c2n1CCCN(Cc1ccc(CC(=O)OC)cc1)C(=O)CN1CCCCC1 [Example 24, Methyl 2-(4-((N-(3-(4-amino-2-butyl-1H-imidazo[4,5-c]quinolin-1-yl)propyl)-2-(piperidin-1-yl)acetamido)methyl)phenyl)acetate] |
| 200 | COCCc1nc2c(N)nc3ccccc3c2n1CCCN(Cc1ccc(CC(=O)OC)cc1)C(=O)CN(C)C [Example 30, Methyl 2-(4-((N-(3-(4-amino-2-(2-methoxyethyl)-1H-imidazo[4,5-c]quinolin-1-yl)propyl)-2-(dimethylamino)acetamido)methyl)phenyl)acetate] |
